Structures can show the parent of a compound that is named as a salt.
The molecules below were run on apomorphine climbing (assay: Neuroleptic activity in the climbing mice assay (apomorphine-induced climbing)). Conditions: Mus musculus, ip, intraperitoneal 30 min before apomorphine 1.5 mg/kg s.c., climbing scored at 10, 20 and 30 min, linear regression, read-out: NEUROLEPTIC ACTIVITY (ED50 mg/kg).
Assay type: in vivo, mice (CK-1 male)
Method: The subject CK-1 male mice (23-27 grams) are group-housed under standard laboratory conditions. The mice are individually placed in wire mesh stick cages (4"×4" by 10") and are allowed one hour for adaptation and exploration of the new environment.
For evaluation of climbing, 3 readings are taken at 10, 20 and 30 minutes after apomorphine administration according to the following scale: […]
Mice consistently climbing before the injection of apormorphine will be discarded.
With full-developed apomorphine climbing, the animals are hanging onto the cage walls, rather motionless, over longer periods of time. By contrast, climbs due to mere motor stimulation usually only last a few seconds.
The climbing scores are individually totaled (maximal score: 6 per mouse over 3 readings) and the total score of the control group (vehicle intraperitoneally--apomorphine subcutaneously) is set to 100%.

SMILES	ED50 [mg/kg]
Cl.O=C(CCCN1CCC(c2noc3cc(Cl)ccc23)CC1)c1ccc(F)cc1 [3-[1-(4-Fluorobenzoylpropyl)-4-piperidyl]-6-chloro-1,2-benzisoxazole hydrochloride]	0.27
Fc1ccc2c(CCCN3CCC(c4noc5ccc(F)cc45)CC3)noc2c1 [3-[1-(6-Fluoro-1,2-benzisoxazol-3-propyl)-4-piperidyl]-5-fluoro-1,2-benzisoxazole hydrochloride]	3.4
COc1ccc2onc(C3CCN(CCCc4noc5cc(F)ccc45)CC3)c2c1 [3-[1-(6-Fluoro-1,2-benzisoxazole-3-propyl)-4-piperidyl]-5-methoxy-1,2-benzisoxazole hydrobromide]	7.23
O=c1[nH]c2ccccc2n1CCCN1CCC(c2noc3ccccc23)CC1 [3-{1,3-dihydro-2-oxo-2H-benzmidazol-1-ylpropyl]-4-piperidyl}-1,2-benzisoxazole]	0.36
Br.O=c1[nH]c2ccccc2n1CCN1CCC(c2noc3ccccc23)CC1 [3-{1-[1,3-Dihydro-2-oxo-2H-benzimidazol-1-ylethyl]-4-piperidyl}1,2-benzisoxazole hydrobromide]	7.7
Fc1ccc(C(CCCN2CCC(c3noc4ccc(F)cc34)CC2)c2ccc(F)cc2)cc1 [3-{1-[4,4-bis-Fluorophenyl)-1-butyl]-4-piperidyl}-5-fluoro-1,2-benzisoxazole hydrochloride]	1.6
Cc1[nH]c2ccccc2c1CCCN1CCC(c2noc3cc(F)ccc23)CC1 [3-{3-[4-(6-Fluoro-1,2-benzisoxazol-3-yl)piperidyl]propyl}-2-methylindole]	0.16
Cl.Fc1ccc(C(CCCN2CCC(c3noc4cc(Cl)ccc34)CC2)c2ccc(F)cc2)cc1 [6-Chloro-3{1-[4,4-bis(4-fluorophenyl)-1-butyl]-4-piperidyl}-1,2-benzisoxazole hydrochloride]	6.4
Fc1ccc(C(CCCN2CCC(c3noc4cc(F)ccc34)CC2)c2ccc(F)cc2)cc1 [6-Fluoro-3-{1-[4,4-bis(4-fluorophenyl)-1-butyl]-4-piperidyl]-1,2-benzisoxable hydrobromide]	0.58
CCN1CCCC1CNC(=O)c1cc(S(N)(=O)=O)ccc1OC (centres unmarked) [sulpiride, reference compound]	14.5

Same assay, conditions: Mus musculus, ip, intraperitoneal 30 min before apomorphine 1.5 mg/kg s.c., climbing scored at 10, 20 and 30 min, linear regression, read-out: N[…] (ED50 mg/kg)

SMILES	ED50 [mg/kg]
O=C(CCCN1CCC(O)(c2ccc(Cl)cc2)CC1)c1ccc(F)cc1 [haloperidol, reference compound]	0.11

Source: patent US4352811A, “3-(1-Substituted-4-piperidyl)-1,2-benzisoxazoles” (Hoechst-Roussel Pharmaceuticals Inc., priority 1981, dated 1982)
